Measurements published in patent publication US20100292185A1, “BETA-LACTAMASE INHIBITORS” (priority 2009, published 2010).
pIC50: −log10 of the molar value. Where a name gives a salt, the structure may show the parent alone. Read-outs that look alike come from different tables or passages of the source.

Columns and labels:
[1] = tested on: E. cloacae expressing the Class C P99+; assay: In vitro antibacterial assay of β-lactamase inhibition (broth microdilution MIC), E. cloacae P99+; format: cell-based; conditions: in presence of Ceftazidime 8 μg/ml (Examples 1-56)
Procedure, shortened: (§1)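 Each strain, maintained under 50 μg/mL ampicillin selection, was exposed to twofold compound dilutions (final range 8 μg/mL to 0.015 μg/ml) combined with a β-lactam antibiotic in cation-adjusted Mueller Hinton broth. The MIC was judged visually following overnight (16-20 h) incubation at 37° C.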

[2] = biological target: T1, VIM-2 metallo β-lactamase (Pseudomonas aeruginosa, UniProt Q9K2N0); assay: β-lactamase enzyme inhibition assay (nitrocefin substrate), VIM-2; format: biochemical; conditions: nitrocefin 100 μM, 37° C., PBS pH 7.0; read-out: VIM-2 IC50
T1 construct: made in house
Procedure, shortened: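 VIM-2 was expressed untagged in E. coli BL21(DE3) and purified by two Q sepharose anion-exchange runs plus gel filtration to >90% purity. Compounds at 100–0.005 μM in PBS pH 7.0 were preincubated with enzyme for 10 min at 37° C, then nitrocefin was added at 100 μM final. Hydrolysis was followed kinetically at 486 nm for 10 min; IC50 is the concentration halving the initial rate relative to no-inhibitor wells.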

[3] = biological target: T2, p99 AmpC β-lactamase (Enterobacter cloacae, UniProt P05364); assay: β-lactamase enzyme inhibition assay (nitrocefin substrate), P99 AmpC; format: biochemical
T2 construct: expressed as native untagged proteins; made in house; host or cells: E. coli BL21(DE3)
T2 sequence (P05364 21-381): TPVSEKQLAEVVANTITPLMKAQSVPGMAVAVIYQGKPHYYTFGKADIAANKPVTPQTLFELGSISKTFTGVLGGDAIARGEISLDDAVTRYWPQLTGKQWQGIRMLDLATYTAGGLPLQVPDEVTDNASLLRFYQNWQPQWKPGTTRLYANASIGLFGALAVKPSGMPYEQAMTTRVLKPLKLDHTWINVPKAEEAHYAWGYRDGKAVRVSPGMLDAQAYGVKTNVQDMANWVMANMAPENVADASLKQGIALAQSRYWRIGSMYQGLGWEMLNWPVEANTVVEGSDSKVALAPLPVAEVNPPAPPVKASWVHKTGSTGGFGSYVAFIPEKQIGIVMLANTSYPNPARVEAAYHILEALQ
Procedure, shortened: (§2)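 Initial nitrocefin hydrolysis (100 µM final, A486 kinetic over 10 min) was measured after a 10-min, 37 °C preincubation of each purified untagged enzyme with compound at 100–0.005 µM in PBS pH 7.0. Percent inhibition relative to inhibitor-free wells gave the IC50. Enzymes were produced in E. coli BL21(DE3).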

[4] = biological target: T3, CTX-M15 β-lactamase (Escherichia coli, UniProt Q9EXV5); assay: β-lactamase enzyme inhibition assay (nitrocefin substrate), CTXM-15; format: biochemical
T3 construct: expressed as native untagged proteins; made in house; host or cells: E. coli BL21(DE3)
T3 sequence (Q9EXV5 entry or part of it): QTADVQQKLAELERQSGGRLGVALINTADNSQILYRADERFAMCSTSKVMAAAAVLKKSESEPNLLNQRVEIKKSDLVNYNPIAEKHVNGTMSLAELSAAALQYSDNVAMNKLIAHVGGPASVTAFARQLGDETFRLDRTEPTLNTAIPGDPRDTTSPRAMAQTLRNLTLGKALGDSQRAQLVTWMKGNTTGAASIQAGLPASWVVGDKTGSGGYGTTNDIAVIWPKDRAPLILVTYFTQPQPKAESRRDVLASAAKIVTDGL
Procedure, shortened: as §2

[5] = tested on: K. pneumoniae expressing the Class A Extended Spectrum Beta-Lactamase (ESBL) CTX-M-15; assay: In vitro antibacterial assay of β-lactamase inhibition (broth microdilution MIC), K. pneumoniae CTX-M-15; format: cell-based; conditions: in presence of Ceftazidime 8 μg/ml (Examples 1-56)
Procedure, shortened: as §1

[6] = tested on: E. coli expressing the Class A ESBL SHV-5; assay: In vitro antibacterial assay of β-lactamase inhibition (broth microdilution MIC), E. coli SHV-5; format: cell-based; conditions: in presence of Ceftazidime 8 μg/ml (Examples 1-56)
Procedure, shortened: as §1

[7] = tested on: K. pneumoniae expressing the Class A carbapenemase KPC-2; assay: microbe, parasite or virus in culture; format: cell-based; conditions: in presence of Ceftazidime 8 μg/ml (Examples 1-56)
Procedure, shortened: as §1

[8] = biological target: T4, KPC-2 β-lactamase (Klebsiella pneumoniae, UniProt Q9F663); assay: β-lactamase enzyme inhibition assay (nitrocefin substrate), KPC-2; format: biochemical
T4 construct: expressed as native untagged proteins; made in house; host or cells: E. coli BL21(DE3)
T4 sequence (Q9F663 25-293 limits assumed): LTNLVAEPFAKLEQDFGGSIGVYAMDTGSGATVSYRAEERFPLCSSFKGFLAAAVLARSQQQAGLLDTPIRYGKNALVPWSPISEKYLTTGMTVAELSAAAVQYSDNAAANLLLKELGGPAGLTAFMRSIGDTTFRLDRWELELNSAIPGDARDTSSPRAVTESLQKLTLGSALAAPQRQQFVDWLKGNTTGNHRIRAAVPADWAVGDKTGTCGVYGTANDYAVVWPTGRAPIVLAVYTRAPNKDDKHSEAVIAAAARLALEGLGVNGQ
Procedure, shortened: as §2

[9] = biological target: T5, OXA-23 β-lactamase (Acinetobacter baumannii, UniProt Q9L4P2); assay: β-lactamase enzyme inhibition assay (nitrocefin substrate), OXA-23 crude extract; format: biochemical; conditions: nitrocefin 100 μM, 37° C., PBS pH 7.0; read-out: OXA-23 IC50
T5 construct: crude β-lactamase extracts were prepared from 20 ml overnight cultures; endogenous in cells; host or cells: Acinetobacter baumannii cells containing OXA-23 (crude freeze-thaw extract)
T5 sequence (Q9L4P2 18-273): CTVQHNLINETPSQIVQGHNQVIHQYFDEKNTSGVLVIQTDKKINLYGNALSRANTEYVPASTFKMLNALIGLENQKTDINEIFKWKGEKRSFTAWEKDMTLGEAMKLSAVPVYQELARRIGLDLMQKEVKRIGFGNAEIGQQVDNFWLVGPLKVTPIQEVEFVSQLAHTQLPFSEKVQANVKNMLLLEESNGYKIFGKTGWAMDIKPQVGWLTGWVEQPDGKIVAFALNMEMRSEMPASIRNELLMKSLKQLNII
Procedure, shortened: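 Crude enzyme came from freeze-thaw extracts of mid-log OXA-23-carrying A. baumannii grown in MH-II broth at 37° C. Inhibitors (100–0.005 μM in PBS pH 7.0) were preincubated with the enzyme for 10 min at 37° C, then 100 μM nitrocefin (final) was added and read kinetically at 486 nm for 10 min. IC50 was taken from initial hydrolysis rates relative to uninhibited controls.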

[10] = biological target: T6, SHV-5 β-lactamase (Klebsiella pneumoniae, UniProt P0A3M1); assay: β-lactamase enzyme inhibition assay (nitrocefin substrate), SHV-5; format: biochemical
T6 construct: expressed as native untagged proteins; made in house; host or cells: E. coli BL21(DE3)
T6 sequence (P0A3M1 22-286): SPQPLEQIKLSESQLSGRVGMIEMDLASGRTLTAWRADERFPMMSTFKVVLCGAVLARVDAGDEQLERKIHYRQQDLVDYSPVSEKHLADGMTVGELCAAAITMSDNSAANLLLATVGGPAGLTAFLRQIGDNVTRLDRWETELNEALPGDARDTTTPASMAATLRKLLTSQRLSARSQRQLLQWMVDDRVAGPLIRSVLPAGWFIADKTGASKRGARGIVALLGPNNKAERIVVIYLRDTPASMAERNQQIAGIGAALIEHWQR
Procedure, shortened: as §2

[11] = tested on: P. aeruginosa expressing the Class B metallo β-lactamase VIM-2; assay: In vitro antibacterial assay of β-lactamase inhibition (broth microdilution MIC), P. aeruginosa VIM-2; format: cell-based; conditions: in presence of Ceftazidime 16 μg/mL (Examples 1-56)
Procedure, shortened: as §1

[12] = nitrocefin 100 μM, 37° C., PBS pH 7.0, read-out: P99 AmpC IC50

Compound | MIC of example compound, E. cloacae P99+ [1] [µg/mL] | pIC50 [2] | pIC50 [3, 12] | pIC50 [4] | MIC of example compound, K. pneumoniae CTX-M-15 [5] [µg/mL] | MIC of example compound, E. coli SHV-5 [6] [µg/mL] | MIC of example compound, K. pneumoniae KPC-2 [7] [µg/mL] | pIC50 [8] | pIC50 [9] | pIC50 [10] | MIC of example compound, P. aeruginosa VIM-2 [11] [µg/mL] | pIC50 [3]
CC(=O)NCc1ccc(CC(=O)N[C@@H](Cc2cccc(C(=O)O)c2O)B(O)O)cc1 [Example 32, (1R)-[2-(4-acetylaminomethyl-phenyl)-acetylamino]-(3-carboxy-2hydroxy)benzyl-methylboronic acid] | >8 | < 6.00 | 8.70 | 8.70 | 0.5 | 0.5 | 4 | 8.40 | 6.94 | 9.52 | >8 | –
CNCc1ccc(CC(=O)N[C@@H](Cc2cccc(C(=O)O)c2O)B(O)O)cc1 [Example 33, (1R)-[2-(4-methylaminomethyl-phenyl)-acetylamino]-(3-carboxy-2hydroxy)benzyl-methylboronic acid formate] | 0.25 | 6.47 | 8.15 | 8.10 | 0.12 | 0.5 | 0.06 | 7.92 | 6.42 | 8.30 | >8 | –
O=C(Cc1ccc(CNCCO)cc1)N[C@@H](Cc1cccc(C(=O)O)c1O)B(O)O [Example 34, (1R)-[2-{4-((2-hydroxy-ethylamino)-methyl)-phenyl}-acetylamino]-(3-carboxy-2hydroxy)benzyl-methylboronic acid formate] | 0.5 | 6.24 | 8.40 | 8.15 | 0.12 | 0.5 | 0.03 | 7.74 | 6.59 | 8.30 | >8 | –
NCCNCc1ccc(CC(=O)N[C@@H](Cc2cccc(C(=O)O)c2O)B(O)O)cc1 [Example 35, (1R)-[2-{4-((2-amino-ethylamino)-methyl)-phenyl}-acetylamino]-(3-carboxy-2hydroxy)benzyl-methylboronic acid formate] | 0.25 | 6.71 | 8.30 | 8.15 | 0.25 | 0.5 | 0.03 | 7.77 | 7.01 | 8.70 | >8 | –
CN(C)Cc1ccc(CC(=O)N[C@@H](Cc2cccc(C(=O)O)c2O)B(O)O)cc1 [Example 36, (1R)-[2-(4-dimethylaminomethyl-phenyl)-acetylamino]-(3-carboxy-2hydroxy)benzyl-methylboronic acid formate] | 0.25 | 6.23 | 8.70 | 8.40 | 0.12 | 0.5 | 0.06 | 8.30 | 6.72 | 8.70 | >8 | –
O=C(Cc1ccc(CN2CCNCC2)cc1)N[C@@H](Cc1cccc(C(=O)O)c1O)B(O)O [Example 37, (1R)-[2-(4-piperazin-1-ylmethyl-phenyl)-acetylamino]-(3-carboxy-2hydroxy)benzyl-methylboronic acid formate] | 2 | 6.11 | 8.70 | 8.15 | 2 | 2 | 0.03 | 8.05 | 7.08 | 8.70 | >8 | –
O=C(Cc1ccc(CN(CCO)CCO)cc1)N[C@@H](Cc1cccc(C(=O)O)c1O)B(O)O [Example 39, (1R)-[2-(4-{[bis-(2-hydroxy-ethyl)-amino]-methyl}-phenyl)-acetylamino]-(3-carboxy-2-hydroxy)benzyl-methylboronic acid formate] | 2 | 6.33 | 7.92 | 8.40 | 0.5 | 0.5 | 0.03 | 7.59 | 6.78 | 6.01 | >8 | –
C[N+]1(Cc2ccc(CC(=O)N[C@@H](Cc3cccc(C(=O)O)c3O)B(O)O)cc2)CCOCC1 [Example 41, 4-(4-{[2-(3-carboxy-2-hydroxy-phenyl)-1-borono-ethylcarbamoyl]-methyl}-benzyl)-4-methyl-morpholin-4-ium formate] | 1 | < 6.00 | – | 8.70 | 0.25 | 0.5 | 0.03 | 8.00 | 6.70 | 8.40 | >8 | 7.70
Cl.Nc1cncc(C(=O)N[C@@H](Cc2cccc(C(=O)O)c2O)B(O)O)c1 [Example 44, (2R)-3-{[2-(5-amino-pyridine-3-carbonyl)-amino]-2-borono-ethyl}-2-hydroxy-benzoic acid hydrochloride] | 1 | 6.16 | 9.00 | 8.70 | 0.25 | 1 | 0.015 | 7.52 | 6.92 | 7.15 | >8 | –
